Activity calls are given as the source filed them. The calls are words filed in the database; no cut-off is given here.
Experiments:
[1] = target: T1, Glutamine synthetase (Oryza sativa) (UniProt Q01HZ7); test: Inhibition of Oryza sativa cv. Gigante vercellese (rice) glutamine synthetase assessed as inhibition of glutamine synthesis from glutamic acid at 1 mM after 15 min by biosynthetic assay; settings: values are per cent of control
T1 sequence (whole entry): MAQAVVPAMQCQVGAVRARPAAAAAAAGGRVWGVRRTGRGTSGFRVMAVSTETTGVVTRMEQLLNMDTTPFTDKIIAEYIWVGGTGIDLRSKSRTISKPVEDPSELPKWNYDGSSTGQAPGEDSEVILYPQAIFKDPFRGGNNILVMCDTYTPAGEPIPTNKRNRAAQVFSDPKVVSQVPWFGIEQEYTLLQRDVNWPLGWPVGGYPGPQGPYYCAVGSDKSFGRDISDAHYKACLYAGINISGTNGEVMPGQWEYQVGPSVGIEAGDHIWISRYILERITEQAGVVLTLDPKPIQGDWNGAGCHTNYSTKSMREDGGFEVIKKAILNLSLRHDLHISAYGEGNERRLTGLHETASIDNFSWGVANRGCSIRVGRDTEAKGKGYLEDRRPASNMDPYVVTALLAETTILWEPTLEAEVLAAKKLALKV

[2] = target: T1, Glutamine synthetase (Oryza sativa); test: Inhibition of Oryza sativa cv. Gigante vercellese (rice) glutamine synthetase at 1 mM after 30 min by hemibiosynthetic assay; settings: values are per cent of control
[3] = target: T1, Glutamine synthetase (Oryza sativa); test: Inhibition of Oryza sativa cv. Gigante vercellese (rice) glutamine synthetase at 1 mM by transferase assay; settings: values are per cent of control
Glutamine synthetase [4] = target: T2, Glutamine synthetase (Oryza sativa, UniProt Q01HZ7); test: Inhibition of Oryza sativa cv. Gigante vercellese (rice) glutamine synthetase assessed as inhibition of glutamine synthesis from glutamic acid after 15 min by biosynthetic assay; settings: read-out: I50
T2 sequence (Q01HZ7 whole entry): T1 sequence (whole entry)

Glutamine synthetase [5] = target: T2, Glutamine synthetase; test: (§1) Inhibition of Oryza sativa cv. Gigante vercellese (rice) glutamine synthetase after 30 min by hemibiosynthetic assay; settings: read-out: I50
Glutamine synthetase [6] = target: T2, Glutamine synthetase; test: (§2) Inhibition of Oryza sativa cv. Gigante vercellese (rice) glutamine synthetase by transferase assay; settings: read-out: I50
[7] = target: T1, Glutamine synthetase (Oryza sativa); test: as §1
[8] = target: T1, Glutamine synthetase (Oryza sativa); test: as §2
Oryza sativa [9] = test: Effect on amino acid pool in Oryza sativa cv. Gigante vercellese (rice) cells assessed as aspartic acid content per gram freshweight of culture at 0.5 mM after 48 hr (reference value: 1.10 +/- 0.26 umol); format: functional
Oryza sativa [10] = test: Effect on amino acid pool in Oryza sativa cv. Gigante vercellese (rice) cells assessed as total amino acid content per gram fresh weight of culture at 0.5 mM after 48 hr (reference value: 24.65 +/- 0.97 umol); format: functional
Oryza sativa [11] = test: Effect on amino acid pool in Oryza sativa cv. Gigante vercellese (rice) cells assessed as glutamine content per gram fresh weight of culture at 0.5 mM after 48 hr (reference value: 4.24 +/- 0.35 umol); format: functional
Oryza sativa [12] = test: Effect on amino acid pool in Oryza sativa cv. Gigante vercellese (rice) cells assessed as serine content per gram freshweight of culture at 0.5 mM after 48 hr (reference value: 0.60 +/- 0.09 umol); format: functional
Oryza sativa [13] = test: Effect on amino acid pool in Oryza sativa cv. Gigante vercellese (rice) cells assessed as asparagine content per gram freshweight of culture at 0.5 mM after 48 hr (reference value: 3.18 +/- 0.25 umol); format: functional
Oryza sativa [14] = test: Effect on amino acid pool in Oryza sativa cv. Gigante vercellese (rice) cells assessed as glutamic acid content per gram freshweight of culture at 0.5 mM after 48 hr (reference value: 0.75 +/- 0.07 umol); format: functional
[15] = target: T1, Glutamine synthetase (Oryza sativa); test: Reversible inhibition of Oryza sativa cv. Gigante vercellese (rice) glutamine synthetase assessed as inhibition of glutamine synthesis from glutamic acid at 10 uM after 50 min by biosynthetic assay
[16] = target: T1, Glutamine synthetase (Oryza sativa); test: Reversible inhibition of Oryza sativa cv. Gigante vercellese (rice) glutamine synthetase assessed as inhibition of glutamine synthesis from glutamic acid at 20 uM after 50 min by biosynthetic assay

| SMILES | residual activity [1] [%] | residual activity [2] [%] | residual activity [3] [%] | IC50 (Glutamine synthetase [4]) [µM] | IC50 (Glutamine synthetase [5]) [µM] | IC50 (Glutamine synthetase [6]) [µM] | I50 [7] | I50 [8] | Activity (Oryza sativa [9]) [umol/g fresh weight] | Activity (Oryza sativa [10]) [umol/g fresh weight] | Activity (Oryza sativa [11]) [umol/g fresh weight] | Activity (Oryza sativa [12]) [umol/g fresh weight] | Activity (Oryza sativa [13]) [umol/g fresh weight] | Activity (Oryza sativa [14]) [µmol/g fresh weight] | inhibition [15] | inhibition [16] |
| --- | --- | --- | --- | --- | --- | --- | --- | --- | --- | --- | --- | --- | --- | --- | --- | --- |
| Cc1cccc(NC(P(=O)(O)O)P(=O)(O)O)n1 | 114 | 74.4 | 25.9 | – | – | – | – | – | – | – | – | – | – | – | – | – |
| O=P(O)(O)C(NC1CCCCC1)P(=O)(O)O [(CYCLOHEXYLAMINO)METHYLENEDIPHOSPHONIC ACID] | 50.5 | 32.7 | 46.1 | 1110 | 461 | 915 | – | – | – | – | – | – | – | – | – | – |
| O=C(O)c1cccc(NC(P(=O)(O)O)P(=O)(O)O)c1 [3-(DIPHOSPHONOMETHYLAMINO)BENZOIC ACID] | 62.5 | 99 | 104 | 1800 | – | – | inactive | inactive | – | – | – | – | – | – | – | – |
| O=P(O)(O)C(NCCc1ccc(O)cc1)P(=O)(O)O [(4-HYDROXYPHENETHYLAMINO)METHYLENEDIPHOSPHONIC ACID] | 72.6 | 36.9 | 98.4 | 4470 | 695 | – | – | inactive | – | – | – | – | – | – | – | – |
| O=P(O)(O)C(Nc1ccccc1)P(=O)(O)O | 108 | 92 | 44.3 | – | – | – | – | – | – | – | – | – | – | – | – | – |
| O=P(O)(O)C(Nc1ccncc1)P(=O)(O)O | 119 | 97.2 | 84.9 | – | – | – | – | – | 1.21 | 32.64 | 4.79 | 2.22 | 1.14 | 4.24 | – | – |
| O=C(O)c1cccnc1NC(P(=O)(O)O)P(=O)(O)O [2-(DIPHOSPHONOMETHYLAMINO)NICOTINIC ACID] | 27.2 | 40.8 | 61 | 334 | 624 | 1.45 | – | – | – | – | – | – | – | – | – | – |
| O=P(O)(O)C(NCc1ccccc1)P(=O)(O)O | 109 | 89.1 | 102 | – | – | – | – | – | – | – | – | – | – | – | – | – |
| O=P(O)(O)C(Nc1ccccn1)P(=O)(O)O | 37.6 | 30.2 | 60.1 | 243 | 215 | 1040 | – | – | – | – | – | – | – | – | – | – |
| NC(P(=O)(O)O)P(=O)(O)O | 119 | 81.2 | 96.4 | – | – | – | – | – | – | – | – | – | – | – | – | – |
| O=P(O)(O)C(Nc1ccc(Cl)cn1)P(=O)(O)O | 13.9 | 17.5 | 52.8 | 69 | 96 | 1040 | – | – | – | – | – | – | – | – | – | – |
| Cc1ccc(NC(P(=O)(O)O)P(=O)(O)O)cc1 [(P-TOLYLAMINO)METHYLENEDIPHOSPHONIC ACID] | 14.3 | 57.6 | 93.8 | 170 | 774 | – | – | inactive | 0.76 | 22.91 | 2.95 | 0.6 | 0.61 | 2.97 | – | – |
| CP(=O)(O)CC[C@H](N)C(=O)O [PHOSPHINOTHRICIN] | 2 | 9.9 | 25.7 | 44 | 49 | 172 | – | – | – | – | – | – | – | – | inactive | – |
| O=[N+]([O-])c1cccc(NC(P(=O)(O)O)P(=O)(O)O)c1 [(3-NITROPHENYLAMINO)METHYLENEDIPHOSPHONIC ACID] | 97.6 | 101 | 95.6 | 738 | 1620 | 1.99 | – | – | – | – | – | – | – | – | – | – |
| O=P(O)(O)C(Nc1cc(Cl)cc(Cl)c1)P(=O)(O)O [(3,5-DICHLOROPHENYLAMINO)METHYLENEDIPHOSPHONIC ACID] | 3.1 | 13.1 | 38.1 | 33 | 88 | 0.396 | – | – | 0.57 | 28.61 | 2.72 | 1.26 | 0.49 | 3.19 | – | Active |
| O=P(O)(O)C(Nc1ncccn1)P(=O)(O)O | 42.3 | 64.3 | 76.8 | – | – | – | – | – | – | – | – | – | – | – | – | – |
| Cc1ccccc1CNC(P(=O)(O)O)P(=O)(O)O | 101 | 70.5 | 50.8 | – | – | – | – | – | – | – | – | – | – | – | – | – |
| O=P(O)(O)C(NCc1ccccn1)P(=O)(O)O | 8.8 | 16.1 | 54.6 | 64 | 103 | 1130 | – | – | 1.66 | 26.94 | 3.25 | 1.53 | 0.63 | 4.78 | – | – |

From ChEMBL document CHEMBL3046691, “Herbicidal pyridyl derivatives of aminomethylene-bisphosphonic acid inhibit plant glutamine synthetase” (J Agric Food Chem, 2004)
